# Paper PMC7718273 (Scientific Reports, 2020)
# pIC50: −log10 of the molar value. Where two headings read alike, the source gives them in different places.
# What was measured:
# serum FAP = target: T1, serum FAP (Mus musculus, UniProt P97321); experiment: IC50 on serum FAP, mice; type: biochemical
# T1 construct: from tissue; host or cells: mouse serum/plasma (ob/ob and C57BL/6J mice)
# ob/ob mice = experiment: Chronic study using ob/ob mice (4 weeks)
# Excerpt: (a) Nonfasting blood glucose levels in ob/ob mice. […] (g) The plasma levels of ALT (GPT), AST (GOT), TG, total cholesterol and NEFA in ob/ob mice. […] (i) Relative expression of genes related to intrahepatic lipogenic gene (GCK), fatty acid and TG synthesis genes (FASN, SREBP and APOC3, LIPIN1), β-oxidation genes (CPT1α, MCAD and PPARα) and FGF21 related genes (ATF4, CHOP, FGF21 and β-klotho) in liver and FGF21 related genes (AdipoQ and β-klotho) in white adipose tissue of ob/ob mice.
# During the observation period, mice were monitored for glucose profiles and weighed. […] Under anesthesia, blood was promptly collected by orbital bleeding and then harvested. Liver tissue was then collected. Serum ALT, AST, TG, total cholesterol, and NEFA levels were assessed by KNOTUS (Incheon, Korea).
# [1] = tested on: differentiated 3T3/L1 adipocytes; experiment: hFGF21 signalling in differentiated 3T3/L1 adipocytes with added FAP (immunoblot); type: cell-based; settings: 5 µM; hFGF21 500 ng/mL pre-incubated with FAP 100 ng/mL for 2 h
# Protocol: Treatment with hFGF21 increased p-ERK, Glut1 and adiponectin levels, which were reduced in the presence of FAP.
# (a) Fully differentiated 3T3/L1 adipocytes were incubated with full-length hFGF21 at 500 ng/mL. […] Phosphorylated ERK (p-ERK), total ERK (ERK), Glut1, adiponectin and β-actin were measured by immunoblots. (b) Quantification of p-ERK, Glut1 and adiponectin was obtained with densitometric analysis, and normalized with total ERK or β-actin, respectively.
# Western blots were performed as described. For protein preparation, cells or tissues were solubilized in a lysis buffer. Protein concentration was determined using a Bio-Rad Protein Assay kit (Bio-Rad, Richmond, CA). Then, 20 μg of the protein was electrophoresed by SDS-PAGE and electrotransferred to polyvinylidene fluoride membranes (Millipore, Bedford, MA). […] Antibodies were detected by horseradish peroxidase-linked secondary antibody (1:10,000; Cell Signaling Tech., 7074S), using the enhanced chemiluminescence Western Blotting Detection System (Molecular Imager Gel Doc XR System, BIO-RAD). […]
# [2] = Plasma protein binding, human; type: in vitro ADME; settings: human (H), read-out: Plasma protein binding (% bound) (converted)
# Protocol: Protein binding was conducted as described. Compound solutions prepared in DMSO were diluted in phosphate buffer (final concentration: 1 µg/mL), and added into human plasma (total volume: 1 mL). Aliquots were then transferred in duplicate to: (i) a final concentration plate that was immediately quenched with 23.6 ng/mL internal standard (IS, chlorpropamide) in ACN, (ii) a degradation control, which was placed in a water bath at 37℃ for 4 h, and (iii) ultracentrifuge tubes, which were centrifuged for 5 min at 4℃ (14,000 rpm). All reactions were stopped by the addition of ACN containing 23.6 ng/mL chlorpropamide. The samples were subjected to LC–MS/MS analysis.
# FAP = tested on: T2, FAP; experiment: In vivo study using CDAHFD mice: FAP activity at week 14; design: species or system C57BL/6J mice; settings: 10 and 30 mg/kg p.o. for 10 weeks, vs vehicle
# T2 construct: from tissue; host or cells: mouse serum/plasma (ob/ob and C57BL/6J mice)
# Protocol: C57BL/6J mice were fed normal chow diet (n = 5) or choline-deficient, L-amino acid-defined, high-fat diet (CDAHFD) for 4 weeks to induce NASH (n = 8–10/group). […] (a) Relative FAP activity was assessed by FRET-quench and serum FGF21 level at week 14. […] (c) Steatosis scores ranged from 0 to 3 (normal = 0, minimal = 1, moderate = 2, marked = 3) were determined. Hepatic steatosis and fibrosis (Picrosirius red stain) were analyzed in a blinded manner or by digital image analyzer. (d–e) Histological evaluations of liver tissue were performed in each group. Paraffin-embedded liver sections were stained with H&E (d) and Sirius red (e). Representative photographs of each group were presented. Images were obtained at 100x (Scale bar = 50 µm).
# Male C57BL/6J mice (5 weeks of age) were fed with a CDAHFD consisting of 60% kcal fat and 0.1% methionine. […] For the CDAHFD model, compound treatments were started at the beginning of week 4 on the diet and continued until week 14. […] Liver tissue was then collected. All other measurements were done similarly as described above. Staining was performed using H&E and Picrosirius red as described previously. Areas of positive Sirius red were quantified by computer-based morphometric analysis.
# [3] = Microsomal stability, rat; type: in vitro ADME; settings: liver microsomes, pH 7.4, rat (R), 0.5 mg/mL, NADPH, read-out: Microsomal stability (% remaining at 60 min)
# Protocol: Aliquots were then transferred in duplicate to: (i) a final concentration plate that was immediately quenched with 23.6 ng/mL internal standard (IS, chlorpropamide) in acetonitrile (ACN) or (ii) tubes, which were centrifuged for 5 min at 4℃ (14,000 rpm). The samples were subjected to LC–MS/MS analysis on an AB Sciex 4000 Q Trap hybrid triple quadrupole linear ion-trap MS (AB Sciex, Framingham, MA) coupled to an Agilent 1200 HPLC (Agilent Tech. Santa Clara, CA) with a reverse-phase Kinetex XB-C18 column (2.1 × 100 mm, 2.6 µm; Phenomenex). Mobile phases were comprised of 0.1% formic acid (FA) in water (A) and 0.1 FA in ACN (B). Data analysis was performed using […] (Ver. 1.6.1).
# T1 sequence (P97321 24-761 limits assumed): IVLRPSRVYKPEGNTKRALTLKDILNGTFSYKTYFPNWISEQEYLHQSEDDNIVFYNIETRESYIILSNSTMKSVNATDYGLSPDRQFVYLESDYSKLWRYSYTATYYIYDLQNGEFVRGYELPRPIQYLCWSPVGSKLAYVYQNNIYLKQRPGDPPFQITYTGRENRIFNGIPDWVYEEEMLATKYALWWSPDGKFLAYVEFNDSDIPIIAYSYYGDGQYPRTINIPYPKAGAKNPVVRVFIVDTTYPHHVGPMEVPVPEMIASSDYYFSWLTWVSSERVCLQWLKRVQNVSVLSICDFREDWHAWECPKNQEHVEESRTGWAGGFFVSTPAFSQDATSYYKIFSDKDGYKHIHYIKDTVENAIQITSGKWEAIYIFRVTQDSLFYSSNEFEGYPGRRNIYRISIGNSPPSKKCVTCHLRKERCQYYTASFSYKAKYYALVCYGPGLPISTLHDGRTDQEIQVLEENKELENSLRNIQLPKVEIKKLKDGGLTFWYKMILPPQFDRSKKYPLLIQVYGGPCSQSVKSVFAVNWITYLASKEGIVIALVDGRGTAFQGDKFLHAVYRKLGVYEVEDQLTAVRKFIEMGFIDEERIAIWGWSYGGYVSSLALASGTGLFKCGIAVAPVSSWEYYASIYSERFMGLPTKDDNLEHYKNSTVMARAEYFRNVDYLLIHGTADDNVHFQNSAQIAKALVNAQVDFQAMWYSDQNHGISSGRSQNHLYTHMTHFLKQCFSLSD
structure (smiles),measurement,setting,value
"N#Cc1ccc(Cc2nc(C(=O)NCC(=O)N3CC(F)(F)C[C@H]3C#N)cs2)cc1 [BR103354, (S)-N-(2-(2-cyano-4,4-difluoropyrrolidin-1-yl)-2-oxoethyl)-2-(4-cyanobenzyl)thiazole-4-carboxamide]",pIC50,"serum FAP; mice, monkeys and humans together, read-out: serum FAP IC50 values, all three species",7.51 to 7.57
same,IC50,serum FAP; read-out: Serum FAP IC50 (nM): Mouse,31 nM
same,glucose tolerance (oral glucose tolerance test),ob/ob mice; 50 mg/kg,improved glucose tolerance significantly
same,"FGF21, ATF4 and CHOP mRNA expression in liver",ob/ob mice; 4 weeks,increased
same,liver TG content (Oil red O staining),ob/ob mice; 4 weeks,decreased
same,body weight between treatments,ob/ob mice; 4 weeks (data not shown),no change
same,ERK phosphorylation in adipose tissues,"ob/ob mice; 4 weeks, vs vehicle",increased
same,Serum alanine aminotransferase (ALT),"ob/ob mice; 4 weeks, vs vehicle",significantly reduced
same,aspartate aminotransferase (AST),"ob/ob mice; 4 weeks, vs vehicle",significantly reduced
same,non-esterified free fatty acid (NEFA) levels,"ob/ob mice; 4 weeks, vs vehicle",unaltered
same,serum TG,"ob/ob mice; 4 weeks, vs vehicle",unaltered
same,total cholesterol,"ob/ob mice; 4 weeks, vs vehicle",significantly reduced
same,nonfasting blood glucose,"ob/ob mice; 20 and 50 mg/kg once daily p.o., from 2 weeks, vs vehicle (P < 0.01)",significantly decreased
same,increase of total form of serum FGF21,"ob/ob mice; 20 and 50 mg/kg, week 4",approximately 1.4 fold
same,adiponectin level in white adipose tissues,ob/ob mice; after 4 weeks of treatment,increased
same,fasting blood glucose levels,ob/ob mice; after 4 weeks of treatment,significantly reduced
same,fasting body weights,ob/ob mice; after 4 weeks of treatment,significantly reduced
same,insulin levels,ob/ob mice; after 4 weeks of treatment,significantly reduced
same,liver weights,ob/ob mice; after 4 weeks of treatment,significantly reduced
same,Glut1 levels,[1],enhanced Glut1 levels
same,p-ERK levels,[1],restored p-ERK levels to those of normal
same,fraction unbound at 1 µg/mL,[2],0.33
same,FAP activity,FAP,inhibited in a dose-dependent manner
same,"remaining at 1 h, 1 µM",[3],87%
